According to PubChem BioAssay (NCI):
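1) Cells in 96-well plates. 2) Compound, 48 h, 5 concentrations. 3) Linear interpolation between surrounding doses. 4) Unreached endpoint = highest concentration. Abbreviation: GI50, concentration required for 50% inhibition of growth. At the TGI there is no net growth.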

Tests used:
Assay in all cases: growth of human tumour cells (NCI), 48 h
[1] = test system: HCC-2998 colon
[2] = test system: CAKI-1 renal
[3] = test system: A498 renal
[4] = test system: UACC-257 melanoma
[5] = test system: ACHN renal
[6] = test system: SN12C renal
[7] = test system: HCT-15 colon
[8] = test system: 786-0 renal
[9] = test system: NCI-H23 lung
[10] = test system: K-562 leukemia

Compound	TGI [1]	TGI [2]	TGI [3]	TGI [4]	TGI [5]	TGI [6]	TGI [7]	TGI [8]	TGI [9]	TGI [10]	GI50 [1]	GI50 [2]	GI50 [3]	GI50 [4]	GI50 [5]	GI50 [6]	GI50 [7]	GI50 [9]	GI50 [10]
CC(CSc1nc2c(c(=N)n1-c1ccccc1)c(=S)n(-c1ccccc1)c(=S)n2-c1ccccc1)CN(C)C (configuration not stated)	2.7 µM	2.97 µM	6 µM	3.43 µM	3.15 µM	3.55 µM	3.17 µM	2.37 µM	4.89 µM	3.14 µM	–	–	–	–	–	–	–	–	–
COc1cc(/C=C2\C(=O)N(c3ccc(Cl)cc3)C(c3ccccc3)S2(=O)=O)cc(OC)c1OC (configuration not stated)	> 100 µM	> 100 µM	> 100 µM	> 100 µM	> 100 µM	> 100 µM	> 100 µM	> 100 µM	> 100 µM	> 100 µM	–	–	–	–	–	–	–	–	–
COc1ccc(C2CC(c3cccc(Nc4ccncc4)c3)=NN2c2ccccc2)cc1 (configuration not stated)	3.01 µM	3.18 µM	9.69 µM	4.17 µM	3.28 µM	3.23 µM	3.44 µM	–	3.87 µM	5.05 µM	1.61 µM	1.66 µM	1.41 µM	2 µM	1.81 µM	1.72 µM	1.74 µM	1.88 µM	2 µM
CN(C)CCCNC(=O)N/N=C/c1ccccn1	> 10 µM	–	> 10 µM	> 10 µM	> 10 µM	> 10 µM	> 10 µM	–	–	> 10 µM	–	–	–	–	–	–	–	–	–
COc1ccc(C=C2C(C)=NN(c3cccc(Cl)c3)C23C(Cl)C(=O)N3c2nc3ccccc3s2)cc1 (configuration not stated)	7.42 µM	61 µM	34.8 µM	72.3 µM	51.6 µM	–	37.1 µM	29.4 µM	36 µM	> 100 µM	–	–	–	–	–	–	–	–	–
O=C(CN1CCCC1)Nc1ccc2c(c1)C1Oc3ccccc3CC1CO2 (configuration not stated)	34.9 µM	> 100 µM	> 100 µM	44.3 µM	–	> 100 µM	47.2 µM	57.1 µM	> 100 µM	> 100 µM	–	–	–	–	–	–	–	–	–
CCOC(=O)CC1C(C(=O)OCC)=Cn2c([nH]c3cccc4cccc2c43)=C1C(=O)OCC (configuration not stated)	> 100 µM	> 100 µM	> 100 µM	> 100 µM	> 100 µM	> 100 µM	> 100 µM	> 100 µM	> 100 µM	> 100 µM	–	–	–	–	–	–	–	–	–
CC(=O)CCN1CC2CN=NC2(C#N)C1 (configuration not stated)	> 100 µM	–	> 100 µM	> 100 µM	> 88.7 µM	> 100 µM	> 100 µM	> 100 µM	> 100 µM	> 48.2 µM	–	–	–	–	–	–	–	–	–
COc1cc2c(cc1OC)C(C1CC1)ON(C)CC2 (configuration not stated)	> 100 µM	> 100 µM	> 100 µM	> 100 µM	> 100 µM	> 100 µM	> 100 µM	> 100 µM	> 100 µM	> 100 µM	–	–	–	–	–	–	–	–	–
Cc1cc(C)c(C2=NO[C@@H]3[C@H]2C(=O)C=C2N(Cc4ccccc4)CCO[C@@]23O)c(C)c1	> 100 µM	> 100 µM	> 100 µM	> 100 µM	–	> 100 µM	> 100 µM	–	> 100 µM	> 100 µM	–	–	–	–	–	–	–	–	–
Nc1ncnc2c1ncn2CCCNO	> 100 µM	> 100 µM	> 100 µM	> 100 µM	> 100 µM	> 100 µM	> 100 µM	> 100 µM	> 100 µM	> 100 µM	–	–	–	–	–	–	–	–	–
Nc1ccc2c3c1cccc3c(=O)n1c3ccc(Cc4ccc5c(c4)nc4c6ccc(N)c7cccc(c(=O)n54)c76)cc3nc21	> 100 µM	> 100 µM	> 100 µM	> 100 µM	> 100 µM	> 100 µM	–	> 100 µM	> 100 µM	> 100 µM	–	–	–	–	–	–	–	–	–
C=C(C)C1CCC2(C)C1CCC1(C)C2CCC2C3(C)C4OC(OC4=O)C(C)(C)C3CCC21C (configuration not stated)	> 100 µM	> 100 µM	> 100 µM	> 100 µM	> 100 µM	> 100 µM	> 100 µM	> 100 µM	> 100 µM	> 100 µM	–	–	–	–	–	–	–	–	–
CN(C)c1ccc(/C=C2\N=C(c3ccccc3)N(c3nc4ccc(Sc5ccccc5)cc4[nH]3)C2=O)cc1	33.5 µM	> 100 µM	> 100 µM	90.9 µM	> 100 µM	> 100 µM	> 100 µM	> 100 µM	> 100 µM	96.6 µM	–	–	–	–	–	–	–	–	–
N=C(N)c1ccc(N=Nc2c(O)c(C(=O)Nc3ccccc3)cc3ccccc23)cc1	> 59.7 µM	> 100 µM	> 100 µM	> 100 µM	> 53.6 µM	54.5 µM	> 48.8 µM	30.2 µM	76.1 µM	> 80.4 µM	–	–	–	–	–	–	–	–	–
COC(=O)c1sc2c(Cl)c(Cl)sc2c1Cl	> 100 µM	> 100 µM	> 100 µM	> 100 µM	> 100 µM	> 100 µM	> 100 µM	> 100 µM	> 100 µM	> 100 µM	–	–	–	–	–	–	–	–	–
CC(C)C(Nc1c2ccccc2[n+](C)c2ccccc12)C(=O)O (configuration not stated)	> 100 µM	> 100 µM	> 100 µM	> 100 µM	> 100 µM	> 100 µM	> 100 µM	> 100 µM	> 100 µM	> 100 µM	–	–	–	–	–	–	–	–	–
COc1ccccc1-c1cc(=O)c2cccnc2[nH]1	> 100 µM	> 100 µM	> 100 µM	> 100 µM	> 100 µM	> 100 µM	> 100 µM	> 100 µM	> 100 µM	> 100 µM	–	–	–	–	–	–	–	–	–
Cc1cc(S(=O)(=O)NC2=NCc3c(F)cccc3N2)c(S)cc1Cl	> 100 µM	> 100 µM	> 100 µM	> 100 µM	> 100 µM	> 100 µM	> 100 µM	> 100 µM	–	–	–	–	–	–	–	–	–	–	–
CC(=O)N1CN2C(=O)CCC2c2cc(C)ccc21 (configuration not stated)	> 100 µM	> 100 µM	> 100 µM	> 100 µM	> 100 µM	> 100 µM	> 100 µM	> 100 µM	> 100 µM	> 100 µM	–	–	–	–	–	–	–	–	–
CCOc1ccc(Nc2nc(N)nc(N)c2N=O)cc1	> 100 µM	38.5 µM	> 100 µM	> 100 µM	> 100 µM	> 100 µM	> 100 µM	> 100 µM	> 100 µM	> 100 µM	–	–	–	–	–	–	–	–	–
